Measured values from ChEMBL document CHEMBL5303573, “Mapping human microbiome drug metabolism by gut bacteria and their genes” (Nature, 2019).

Assays:
[1] = The drug is tested on Ruminococcus gnavus strain: ATCC29149 for biotransformation. The drug concentrations were measured before and after a 12-h incubation by liquid-chromatography-coupled mass spectrometry (LC–MS); conditions: mediterraneibacter gnavus, 2 µM
[2] = The drug is tested on Eubacterium ventriosum strain: ATCC27560 for biotransformation. The drug concentrations were measured before and after a 12-h incubation by liquid-chromatography-coupled mass spectrometry (LC–MS); assay type: ADME; set-up: dose 2 uM, timepoint 0 vs 12 hours; conditions: 2 µM
[3] = The drug is tested on Bacteroides pectinophilus strain: ATCC43243 for biotransformation. The drug concentrations were measured before and after a 12-h incubation by liquid-chromatography-coupled mass spectrometry (LC–MS); conditions: 2 µM
[4] = The drug is tested on Subdoligranulum variabile strain: DSM15176 for biotransformation. The drug concentrations were measured before and after a 12-h incubation by liquid-chromatography-coupled mass spectrometry (LC–MS); conditions: 2 µM
[5] = bacteroides thetaiotaomicron, 12 h, 2 µM
Description: The drug is tested on Bacteroides thetaiotaomicron strain: 7330 for biotransformation. The drug concentrations were measured before and after a 12-h incubation by liquid-chromatography-coupled mass spectrometry (LC–MS)

[6] = The drug is tested on Coprococcus comes strain: ATCC27758 for biotransformation. The drug concentrations were measured before and after a 12-h incubation by liquid-chromatography-coupled mass spectrometry (LC–MS); assay type: ADME; set-up: dose 2 uM, timepoint 0 vs 12 hours; conditions: 2 µM
[7] = The drug is tested on Edwardsiella tarda strain: ATCC23685 for biotransformation. The drug concentrations were measured before and after a 12-h incubation by liquid-chromatography-coupled mass spectrometry (LC–MS); conditions: 2 µM
[8] = bacteroides fragilis, 12 h, 2 µM
Description: The drug is tested on Bacteroides fragilis strain: 3397 (T10) for biotransformation. The drug concentrations were measured before and after a 12-h incubation by liquid-chromatography-coupled mass spectrometry (LC–MS)

[9] = The drug is tested on Escherichia coli strain: BW25113 for biotransformation. The drug concentrations were measured before and after a 12-h incubation by liquid-chromatography-coupled mass spectrometry (LC–MS); conditions: 2 µM
[10] = The drug is tested on Ruminococcus lactaris strain: ATCC29176 for biotransformation. The drug concentrations were measured before and after a 12-h incubation by liquid-chromatography-coupled mass spectrometry (LC–MS); conditions: 2 µM
[11] = The drug is tested on Providencia rettgeri strain: DSM1131 for biotransformation. The drug concentrations were measured before and after a 12-h incubation by liquid-chromatography-coupled mass spectrometry (LC–MS); assay type: ADME; set-up: dose 2 uM, timepoint 0 vs 12 hours; conditions: 2 µM
[12] = The drug is tested on Clostridium symbiosum strain: ATCC14940 for biotransformation. The drug concentrations were measured before and after a 12-h incubation by liquid-chromatography-coupled mass spectrometry (LC–MS); conditions: 2 µM
[13] = parabacteroides johnsonii, 12 h, 2 µM
Description: The drug is tested on Parabacteroides johnsonii strain: DSM18315 for biotransformation. The drug concentrations were measured before and after a 12-h incubation by liquid-chromatography-coupled mass spectrometry (LC–MS)

[14] = bacteroides intestinalis, 12 h, 2 µM
Description: The drug is tested on Bacteroides intestinalis strain: DSM17393 for biotransformation. The drug concentrations were measured before and after a 12-h incubation by liquid-chromatography-coupled mass spectrometry (LC–MS)

[15] = The drug is tested on Alistipes indistinctus strain: DSM22520 for biotransformation. The drug concentrations were measured before and after a 12-h incubation by liquid-chromatography-coupled mass spectrometry (LC–MS); conditions: 2 µM
[16] = The drug is tested on Bacteroides caccae strain: ATCC43185 for biotransformation. The drug concentrations were measured before and after a 12-h incubation by liquid-chromatography-coupled mass spectrometry (LC–MS); conditions: 2 µM
[17] = The drug is tested on Bacteroides fragilis strain: ATCC43859 for biotransformation. The drug concentrations were measured before and after a 12-h incubation by liquid-chromatography-coupled mass spectrometry (LC–MS); conditions: 2 µM
[18] = enterocloster bolteae, 12 h, 2 µM
Description: The drug is tested on Clostridium bolteae strain: ATCCBAA-613 for biotransformation. The drug concentrations were measured before and after a 12-h incubation by liquid-chromatography-coupled mass spectrometry (LC–MS)

[19] = The drug is tested on Clostridium ramosum strain: DSM1402 for biotransformation. The drug concentrations were measured before and after a 12-h incubation by liquid-chromatography-coupled mass spectrometry (LC–MS); conditions: thomasclavelia ramosa, 2 µM
[20] = The drug is tested on Enterobacter cancerogenus strain: ATCC35316 for biotransformation. The drug concentrations were measured before and after a 12-h incubation by liquid-chromatography-coupled mass spectrometry (LC–MS); conditions: 2 µM

Row | Structure (SMILES) | Bacterial Biotransformation [1] | Bacterial Biotransformation [2] | Bacterial Biotransformation [3] | Bacterial Biotransformation [4] | Bacterial Biotransformation [5] | Bacterial Biotransformation [6] | Bacterial Biotransformation [7] | Bacterial Biotransformation [8] | Bacterial Biotransformation [9] | Bacterial Biotransformation [10] | Bacterial Biotransformation [11] | Bacterial Biotransformation [12] | Bacterial Biotransformation [13] | Bacterial Biotransformation [14] | Bacterial Biotransformation [15] | Bacterial Biotransformation [16] | Bacterial Biotransformation [17] | Bacterial Biotransformation [18] | Bacterial Biotransformation [19] | Bacterial Biotransformation [20]
1 | CC(=O)O[C@]1(C(C)=O)CC[C@H]2[C@@H]3C=C(Cl)C4=CC(=O)[C@@H]5C[C@@H]5[C@]4(C)[C@H]3CC[C@@]21C [CYPROTERONE ACETATE] | Compound NOT metabolized | Compound NOT metabolized | Compound metabolized | Compound NOT metabolized | Compound metabolized | Compound NOT metabolized | Compound NOT metabolized |  | Compound metabolized | Compound NOT metabolized | Compound NOT metabolized | Compound NOT metabolized | Compound metabolized | Compound metabolized | Compound NOT metabolized | Compound NOT metabolized | Compound metabolized | Compound NOT metabolized | Compound NOT metabolized | 
2 | CN(C)CCOC(C)(c1ccccc1)c1ccccn1.O=C(O)CCC(=O)O (stereo not given) [DOXYLAMINE SUCCINATE] | Compound NOT metabolized | Compound NOT metabolized | Compound NOT metabolized | Compound NOT metabolized | Compound NOT metabolized | Compound NOT metabolized | Compound NOT metabolized | Compound NOT metabolized | Compound NOT metabolized | Compound NOT metabolized |  | Compound NOT metabolized |  | Compound NOT metabolized | Compound NOT metabolized | Compound NOT metabolized | Compound NOT metabolized | Compound NOT metabolized | Compound NOT metabolized | 
3 | OCCN1CCN(CCCN2c3ccccc3Sc3ccc(C(F)(F)F)cc32)CC1 [FLUPHENAZINE] | Compound NOT metabolized | Compound metabolized | Compound NOT metabolized | Compound NOT metabolized | Compound metabolized | Compound metabolized | Compound NOT metabolized | Compound metabolized | Compound metabolized | Compound NOT metabolized | Compound NOT metabolized |  | Compound metabolized | Compound metabolized | Compound NOT metabolized | Compound metabolized | Compound NOT metabolized | Compound NOT metabolized | Compound metabolized | 
4 | C#C[C@]1(OC(C)=O)CC[C@H]2[C@@H]3CCC4=CC(=O)CC[C@@H]4[C@H]3CC[C@@]21C [NORETHINDRONE ACETATE] | Compound metabolized | Compound metabolized |  | Compound NOT metabolized | Compound metabolized | Compound NOT metabolized | Compound NOT metabolized | Compound metabolized | Compound metabolized |  | Compound NOT metabolized | Compound metabolized | Compound metabolized | Compound metabolized | Compound metabolized | Compound metabolized | Compound metabolized | Compound metabolized | Compound NOT metabolized | 
5 | NC(=O)N1c2ccccc2CC(=O)c2ccccc21 [OXCARBAZEPINE] | Compound NOT metabolized | Compound metabolized | Compound metabolized | Compound NOT metabolized |  | Compound NOT metabolized | Compound metabolized |  | Compound metabolized | Compound metabolized | Compound metabolized | Compound metabolized |  | Compound NOT metabolized | Compound metabolized | Compound NOT metabolized |  | Compound NOT metabolized | Compound metabolized | Compound metabolized

Other lines, results leading:

Row | Bacterial Biotransformation [1] | Bacterial Biotransformation [2] | Bacterial Biotransformation [3] | Bacterial Biotransformation [4] | Bacterial Biotransformation [5] | Bacterial Biotransformation [6] | Bacterial Biotransformation [7] | Bacterial Biotransformation [8] | Bacterial Biotransformation [9] | Bacterial Biotransformation [10] | Bacterial Biotransformation [11] | Bacterial Biotransformation [12] | Bacterial Biotransformation [13] | Bacterial Biotransformation [14] | Bacterial Biotransformation [15] | Bacterial Biotransformation [16] | Bacterial Biotransformation [17] | Bacterial Biotransformation [18] | Bacterial Biotransformation [19] | Bacterial Biotransformation [20] | Structure (SMILES)
6 | Compound NOT metabolized | Compound NOT metabolized | Compound NOT metabolized | Compound NOT metabolized | Compound NOT metabolized | Compound NOT metabolized | Compound NOT metabolized | Compound NOT metabolized | Compound NOT metabolized | Compound NOT metabolized | Compound NOT metabolized | Compound NOT metabolized | Compound NOT metabolized | Compound NOT metabolized | Compound NOT metabolized | Compound NOT metabolized | Compound NOT metabolized |  |  |  | CN1CCC(OC(c2ccccc2)c2ccccc2)CC1
7 | Compound NOT metabolized | Compound NOT metabolized |  | Compound NOT metabolized | Compound NOT metabolized | Compound NOT metabolized | Compound NOT metabolized | Compound NOT metabolized |  |  | Compound NOT metabolized | Compound NOT metabolized | Compound NOT metabolized | Compound NOT metabolized | Compound NOT metabolized | Compound NOT metabolized | Compound NOT metabolized | Compound NOT metabolized | Compound NOT metabolized |  | COc1ccccc1OCC(O)COC(N)=O (stereo not given) [METHOCARBAMOL]
8 | Compound NOT metabolized | Compound NOT metabolized |  | Compound NOT metabolized | Compound NOT metabolized | Compound NOT metabolized | Compound NOT metabolized | Compound NOT metabolized | Compound metabolized |  | Compound NOT metabolized | Compound NOT metabolized | Compound NOT metabolized | Compound NOT metabolized | Compound NOT metabolized | Compound NOT metabolized | Compound NOT metabolized | Compound NOT metabolized | Compound NOT metabolized |  | CN1C(=O)CC(C)(c2ccccc2)C1=O (stereo not given) [METHSUXIMIDE]
9 | Compound NOT metabolized | Compound metabolized |  | Compound NOT metabolized | Compound NOT metabolized |  | Compound metabolized |  | Compound NOT metabolized | Compound NOT metabolized | Compound NOT metabolized | Compound metabolized | Compound NOT metabolized | Compound NOT metabolized | Compound NOT metabolized | Compound NOT metabolized |  |  |  | Compound NOT metabolized | CCN(CC)CC#CCOC(=O)C(O)(c1ccccc1)C1CCCCC1.Cl (stereo not given) [OXYBUTYNIN CHLORIDE]
